Legend:
[1] = system: tau/MAPT phosphorylation in control neurons; test: Tau/MAPT phosphorylation in control neurons, Western blotting; type: cell-based, human; settings: treated for 10 days, compared to DMSO treated controls
Method: (§1) Overexpression of DYRK1A in DS is thought to account for increased tau phosphorylation by GSK3β and the increase in DYRK1A positive neurofibrillary tangles (NFTs) in the brains of people with DS and AD. Therefore therapeutic inhibition of DYRK1A activity in DS and AD may delay the progression of neurodegeneration in DS and AD. The following experiment on reduction of tau phosphorylation by inhibition of DYRK1A by inhibitor 4-93 was performed as described in the literature (Shi, Y. et al. A human stem cell model of early Alzheimer's disease pathology in Down syndrome. Sci. Transl. Med. 4, 124ra29 (2012)).
(§2) Neuronal cultures at day 40 were treated with DYRK1A inhibitors and control compounds for 10 days. Total protein was extracted and total tau and phosphorylated tau/MAPT was quantified by Western blotting using antibodies to total tau and a number of phospho-tau epitopes.

[2] = system: tau/MAPT phosphorylation in TS21 neurons; test: Tau/MAPT phosphorylation in TS21 neuronal cultures, Western blotting; type: cell-based, human; settings: treated for 10 days
Method: as §1, §2

[3] = target: DYRK1A (Homo sapiens (Human), UniProt Q13627); test: IC50 determination, methodology similar to Example A (Example B); type: biochemical; settings: against DYRK1A; Table 8
[4] = TS21 neurons, normalised to β-actin, vs DMSO treated controls

IC50 [3] | Structure (SMILES) | tau/MAPT phosphorylation at Ser 396 [1] | tau/MAPT phosphorylation at Ser 404 [1] | total tau protein levels ([2]; TS21 neuronal cultures) | tau phosphorylation at Ser 396 [2, 4] | tau phosphorylation at Ser 404 [2, 4]
 | C[C@H](NC(=O)Cc1cc(F)cc(F)c1)C(=O)N[C@H](C(=O)OC(C)(C)C)c1ccccc1 [DAPT, reference compound] | increased | increased | increased | increased | increased
351 nM | COc1ccc(Nc2ccncc2-c2nc3cc(OC)ccc3s2)c(F)c1 [PST-131] |  |  |  |  | 

— patent publication US10927106B2, “Benzothiazole derivatives as DYRK1 inhibitors” (PHARMASUM THERAPEUTICS AS, priority 2017, dated 2021)
